These results are taken from a melting point compilation (Tetko et al.; mined from patent text by program, amines drawn as free bases though some values may be those of a salt).

Structures are written as SMILES.

As a reminder, the melting point is the temperature, or range, at which the solid turns liquid.

`CC(C)(C)OC(=O)N1CC=C(c2ccc3oc(-c4ccc(S(C)(=O)=O)cc4F)nc3c2)CC1` registered a melting point of 149 to 151 °C. In the case of `c1ccc2c(CCCCN3CCc4c(sc5ccccc45)C3)c[nH]c2c1` it was 113 to 115 °C. Molecule `COC(=O)[C@@H](CCN1C(=O)c2ccccc2C1=O)Oc1c(Br)cc(-c2c(Br)ccc3sc4ccccc4c23)cc1Br` yielded a melting point of 99 to 101 °C.

As to `CCNC(=O)N1C(=O)C2(CCCCC2)NC12CCCCC2`, the melting point lay within 185 to 188 °C.

Consider `CC(C)(C)NC(=O)N1CCN(Cc2ccccc2)C[C@@H]1C(=O)N(CCCn1ccnc1)Cc1ccccc1`, for which the melting point is 57.8 °C.

On to `CC(C)N(C(=O)C(C)C(C#N)(c1ccccc1)c1ccccc1)C(C)C` (stereo unspecified), for which the melting point lay in the range of 195 to 205 °C.

Take `Clc1ccc(Nc2nnc(Cc3ccncc3)c3ccncc23)cc1`: the melting point fell in the range of 220 to 221 °C. As to `CC(C)Cn1c(=O)n(C)c(=O)c2c(Sc3ccc(N)cc3)c(Cc3cccc4ccccc34)sc21`, the melting point fell in the range of 177 to 178 °C. `Cn1cncc1-c1c(C(CC#N)c2ccc(Cl)cc2)ccc2c1c(-c1cccc(Cl)c1)cc(=O)n2C` (stereo unspecified): the melting point was found to be 151 °C. On to `Cn1nc(-c2cc3nccnc3[nH]2)cc1-c1ccccc1`, for which the melting point lay within 222 to 223 °C.

Regarding `COC(=O)Cn1c(=O)c(=O)[nH]c2cc(C(F)(F)F)c(-n3cccc3)cc21`, the melting point lay within 141 to 142 °C. In the case of `O=C1C(=O)N2CCOc3cccc1c32` it was 188 °C.

In turn, `COc1ccc(S(=O)(=O)N2CCc3cccc(-c4cccnc4)c32)cc1` had a melting point of 179 to 181 °C. `CC1(C)OC(=O)N(Cc2ccccc2[N+](=O)[O-])C1=O` returned a melting point of 134 °C. Consider `COC(=O)C(C=CC(=O)O)=CNc1ccc(Cl)cc1`, for which the melting point was 160 to 161 °C. Regarding `Cn1ncc2c(C(F)F)cc(Cl)nc21`, the melting point came to 105 °C.

`O=C(NCc1ccccc1)c1cnccc1-c1ccccc1`: the melting point was in the range of 164 to 166 °C. Take `CC(Cl)c1ccc(-c2ccc(Cl)cc2)cc1` (stereo unspecified): the melting point lay in the range of 100 to 102 °C.

For `COCCOC(=O)C1=C(C(F)F)NC(C)=C(C(=O)OC(C)C)C1c1cccc([N+](=O)[O-])c1` (stereo unspecified), the melting point is 146 to 147 °C. Next, `CC(Cl)(Cl)C(NC(=O)c1cc(F)cc(F)c1)Nc1c(Nc2cccnc2)c(=O)c1=O` (stereo unspecified): 231 to 232 °C; `CCOC(=O)Cn1c2c(c3cc(Cl)cc(Cl)c31)CCN(C(=O)OC(C)(C)C)CC2`: 117 to 120 °C. Take `CCCCOc1cc(CCCC(=O)O)n(Cc2ccc(Cl)cc2Cl)n1`: the melting point fell in the range of 60.5 to 61 °C. The molecule `CCCc1cccc(CNC(=O)c2nc3scc(COCc4ccc(C(=O)O)cc4)c3c(=O)[nH]2)c1` yielded a melting point of 235 to 237 °C.

Molecule `Oc1ccc(-c2cccc3sc4ccccc4c23)cc1` displayed a melting point of 117 to 119 °C. In the case of `CC(=O)NCCn1nnnc1S`, the melting point lay in the range of 138 to 140 °C. Molecule `COCOc1cc(OC)ccc1C=O` returned a melting point of 55 to 56 °C. Next, `COc1cc2c(O)c3c4c(ccnc4c2cc1OC)CCC3`: 218 °C; `CCc1cc(-c2ccc(-c3ccn(CC(=O)OC)n3)cc2)ccc1OC`: 116 to 120 °C; `CCc1scc(C(=O)O)c1N`: 132 to 133 °C. Turning to `CCOP(=O)(CSCCOn1cnc2c(N)ncnc21)OCC`, the melting point was in the range of 93 to 95 °C.

Molecule `COc1ccc(CNC(=NC#N)Nc2ccc(C3=NNC(=O)CC3C)cc2)cc1` (stereo unspecified) registered a melting point of 231 to 233 °C. Regarding `c1ccc(NC(Nc2ccccc2)Nc2ccccc2)cc1`, the melting point lay in the range of 138 to 139 °C. Next, `COCc1c[nH]c(-c2ccc(OCC(O)CO)cc2)n1` (stereo unspecified): 154 to 156 °C; `COC(=O)c1[nH]c2ccccc2c1Oc1ccc(Cl)cc1[N+](=O)[O-]`: 171 to 172 °C; `Cc1cc2c(c(C(C)(C)C)c1)OC(=O)C2c1ccc2c(c1)c1ccccc1n2C` (stereo unspecified): 84 to 90 °C. For the molecule `COC1=C(C(=O)c2ccc(C)cc2)C(c2ccc(C(C)C)cc2)N(c2ccc(C)nn2)C1=O` (stereo unspecified), the melting point was in the range of 248 to 249 °C. The molecule `CS(=O)c1ccc(C(=O)O)cc1[N+](=O)[O-]` (stereo unspecified) registered a melting point of 238 to 239 °C.

Molecule `COC(=O)C(O)P(C)(C)=O` (stereo unspecified) yielded a melting point of 84 to 86 °C. In the case of `C=CCc1c(-c2ccc(S(C)(=O)=O)cc2)cnn(CC(F)(F)F)c1=O`, the melting point lay in the range of 192 to 195 °C. With `Cc1cccc(N=C2NCCN2)c1`, the melting point came to 115 °C. Consider `O=c1[nH]c(Nc2ccccc2)nc2c1ncn2CCCCO`, for which the melting point is over 350 °C. As to `COC(=O)c1sc(Cl)c(Cl)c1O`, the melting point lay in the range of 107 to 108 °C. As to `CCCCCCCCCCCCCCCCC(O)CNCCO` (stereo unspecified), the melting point fell in the range of 84.5 to 86 °C. `COc1cc2cc(CO)c(CO)c(-c3ccnc(-n4c(=O)cc(C(=O)N5CCN(CCO)CC5)c5ccccc54)c3)c2cc1OC` yielded a melting point of 150 to 153 °C. In the case of `CC(C)(C)c1cc(CCc2ccccc2NC(=O)NC2CCCCCC2)cc(C(C)(C)C)c1O` it was 177 to 178 °C; in that of `c1ccc2c(Cn3cncn3)noc2c1`, 102 to 104 °C.

`Cc1[nH]cnc1C=C1CCc2c(C)c3ccccc3n2C1=O` displayed a melting point of 252 to 255 °C. With `O=C(NCCCC(F)(F)F)c1nc(-c2ccc(Cl)cc2Cl)c(-c2ccc(Cl)cc2)s1`, the melting point fell in the range of 99 to 101 °C. As for `CCCNC(=O)n1c(Cc2ccccc2)noc1=O`, the melting point was found to be 74 °C. Next, `CCOC(=O)CN(C)C=C(Cl)C#N`: 57 °C. In turn, `COC(=O)C1=C(C)NC(N)=C(C(=O)OC(C)C)C1c1cccc([N+](=O)[O-])c1` (stereo unspecified) showed a melting point of 167 °C. `O=C(OCCCl)c1cccc(O)c1` yielded a melting point of 50 °C. Turning to `CCOC(=O)C1=C(C)NC(C=O)=C(C(=O)OCC)C1c1ccccc1Cl` (stereo unspecified), the melting point was in the range of 87 to 88 °C. For `COc1cccc([C@H]2O[C@H](CC(=O)NS(C)(=O)=O)C(=O)N(CC(C)(C)CO)c3ccc(Cl)cc32)c1OC`, the melting point fell in the range of 221 to 223 °C. Consider `Cc1ccc(-c2ccc3c(c2)C=C(C(=O)Nc2ccc(-c4ccccn4)cc2)CCO3)cc1`, for which the melting point fell in the range of 228 to 229 °C.

Turning to `Oc1ccc(-c2nc3cc(O)c(Cl)cc3o2)cc1`, the melting point lay within 260 to 262 °C.

As for `COc1ccc(C#N)c(ON=C(C)C)c1`, the melting point fell in the range of 78 to 79 °C. Next, `CCC(CC)Sc1cc(S(N)(=O)=O)c(N)cc1Cl`: 118 to 120 °C. In turn, `O=C(Cl)c1ccc(S(=O)(=O)NC(=O)c2ccccc2Cl)cc1` gave a melting point of 198 to 200 °C.

Molecule `COc1c(C)cc(-c2[nH]c3ccccc3c2C)cc1C` showed a melting point of 108 to 110 °C. `CC(Oc1ccc(COc2ccc(Cl)cc2)cc1)C(=O)O` (stereo unspecified): the melting point lay within 156 to 158 °C. Molecule `COc1cc(C(=O)O)ccc1Cc1cn(C)c2ccc(NC(=O)OC3CCCC3)cc12` came in with a melting point of 157 to 158 °C.

In turn, `CS(=O)c1csc(C(=O)C2C(=O)N(C(N)=O)c3ccc(Cl)cc32)c1` (stereo unspecified) yielded a melting point of 204 to 206 °C. Molecule `Nc1nc(-c2ccccc2)c(-c2ccnc(Nc3cccc(I)c3)n2)s1` had a melting point of 243 to 244 °C. Take `CC(C)(C)NCC(O)COc1ccc(-c2noc3sccc23)cc1` (stereo unspecified): the melting point was found to be 118 °C. In turn, `Cc1cc(Nc2ccnc(Nc3ccc(S(=O)(=O)N(C)C4CCN(Cc5csnn5)CC4)cc3)n2)ccc1F` yielded a melting point of 168 °C. Next, `CCOC(=O)C(=O)Nc1sc(-c2ccccc2)cc1[N+](=O)[O-]`: 139 to 144 °C. Next, `c1ccc(C2C3=NCCN3CCc3ccccc32)cc1` (stereo unspecified): 122 to 123 °C; `Cn1c(=O)nc(-c2ccccc2)c2cc([N+](=O)[O-])ccc21`: 261 to 264 °C.

Regarding `O=C(c1cccnc1)c1cccc([N+](=O)[O-])c1`, the melting point was 73 to 76 °C. Turning to `Cc1ccc(/C=C(/C(=O)OC(C)(C)C)C(=O)c2ccccc2O)cc1`, the melting point lay in the range of 86 to 89 °C.

For `CC(C)(C)OC(=O)N1CCCC[C@@H]1C(=O)c1ccc(Br)cc1`, the melting point is 124 to 125 °C.

Turning to `O=C1c2ccccc2S(=O)(=O)N1COc1ccc([N+](=O)[O-])cc1`, the melting point lay in the range of 162 to 164 °C. Take `NS(=O)(=O)c1ccc(NCC(=O)NC2CCCCC2)cc1`: the melting point was in the range of 223 to 225 °C.

`N#CN(Cc1ccc([N+](=O)[O-])cc1)C(=O)CCCC(=O)N(C#N)Cc1ccc([N+](=O)[O-])cc1` yielded a melting point of 146 to 148 °C. In the case of `CCC1Cn2c(ncc(-c3nnn[nH]3)c2=O)-c2ccccc21` (stereo unspecified), the melting point was in the range of 254 to 258 °C.

`O=S(=O)(NCCc1cccc(CCNS(=O)(=O)c2ccc(Cl)cc2)c1)c1ccc(Cl)cc1`: the melting point was 135 to 136 °C. `NC(=O)c1ccc(N2CCN(Cc3cn4cc(Cl)cc(Cl)c4n3)CC2)cc1` gave a melting point of 234 to 235 °C. In turn, `Cn1cncc1C(O)(c1ccc(Cl)cc1)c1ccc2c(c1)C(c1cccc(Cl)c1)OCC(=O)N2` (stereo unspecified) displayed a melting point of 260 °C. Turning to `CCCc1ccc(-n2ncc(C#N)c2NC(C)=O)c(Cl)c1`, the melting point lay within 143 to 144 °C. In the case of `Cc1cc2c(-c3ccccc3C)c(C(=O)O)c(=O)n(C)c2cc1Cl`, the melting point lay in the range of 204 to 205 °C. In the case of `O=C1NCCc2sccc21` it was 94 °C; in that of `O=S(=O)(c1ccc(Cl)cc1)C(CCCCF)c1cc(F)ccc1F` (stereo unspecified), 77 to 78 °C. As for `O=C(NC1CCCC1)NS(=O)(=O)c1cccc(Cl)c1Cl`, the melting point fell in the range of 202 to 207 °C. Next, `CCOC(=O)c1cc2cccnc2[nH]1`: 153 to 156 °C; `CCOC(=O)c1ccc(CCNS(=O)(=O)c2ccc(Cl)cc2)cc1`: 88 °C; `Nc1nc2c(ncn2CC(CO)CCO)c(=O)[nH]1` (stereo unspecified): 235 °C. Next, `O=C1Cc2ccccc2C(c2ccccc2Cl)N1` (stereo unspecified): 180 to 182 °C; `CCC[C@H](N[C@@H](C)C(=O)N1N=C(C(C)(C)C)S[C@H]1C(=O)O)C(=O)OCC`: 183 to 185 °C; `CCCCC1Cc2c(c3cccnc3n(-c3ccc(F)cc3)c2=O)O1` (stereo unspecified): 258 to 260 °C. The molecule `CNc1cc(OC)c(C(=O)NCC23CCCN(CCC2)C3)cc1Cl` showed a melting point of 188 to 190 °C.
